From patent publication US20240316007A1, “COMPOSITIONS AND TREATMENTS WITH NIROGACESTAT” (SpringWorks Therapeutics, Inc., priority 0001, published 2024)
Structures can show the parent of a compound that is named as a salt.

Columns and labels:
[1] = Pharmacokinetic parameters for single and multiple oral doses of nirogacestat dihydrobromide; format: in vivo
Excerpt: The pharmacokinetic parameters for single and multiple oral doses of nirogacestat dihydrobromide (PF-03084014) are provided in Table 1 below.

[2] = system: progressing desmoid tumors; conditions: Phase 2 study, participants with progressing desmoid tumors; cited from earlier work
[3] = Cohort 1: 150 mg, 1 × 150 mg, APERIOD 2, EXDOSE 150, N 10, Geometric Mean
[4] = Cohort 1: 150 mg, 1 × 150 mg, APERIOD 2, EXDOSE 150, N 10, Max
[5] = Cohort 1: 150 mg, 1 × 150 mg, APERIOD 2, EXDOSE 150, N 10, Median
[6] = Cohort 1: 150 mg, 1 × 150 mg, APERIOD 2, EXDOSE 150, N 10, Min
[7] = Cohort 1: 150 mg, 3 × 50 mg, APERIOD 1, EXDOSE 150, N 10, Max
[8] = Cohort 1: 150 mg, 3 × 50 mg, APERIOD 1, EXDOSE 150, N 10, Min
[9] = Cohort 2: 100 mg, APERIOD 1, EXDOSE 100, N 8, Geometric Mean
[10] = Cohort 2: 100 mg, APERIOD 1, EXDOSE 100, N 8, Max
[11] = Cohort 2: 100 mg, APERIOD 1, EXDOSE 100, N 8, Median
[12] = Cohort 2: 100 mg, APERIOD 1, EXDOSE 100, N 8, Min
[13] = Cohort 3: 50 mg, APERIOD 1, EXDOSE 50.0, N 8, Max
[14] = Cohort 3: 50 mg, APERIOD 1, EXDOSE 50.0, N 8, Median
[15] = Cohort 3: 50 mg, APERIOD 1, EXDOSE 50.0, N 8, Min

For CCC[C@H](N[C@H]1CCc2cc(F)cc(F)c2C1)C(=O)Nc1cn(C(C)(C)CNCC(C)(C)C)cn1 [nirogacestat dihydrobromide, (S)-2-(((S)-6,8-difluoro-1,2,3,4-tetrahydronaphthalen-2-yl)amino)-N-(1-(2-methyl-1-(neopentylamino)propan-2-yl)-1H-imidazol-4-yl)pentanamide], the AUCinf [1, 3] was 3020 ng·h/mL, the AUClast [1, 3] was 2930 ng·h/mL and the CL/F [1, 3] was 49.7 L/h. For the same molecule, the Cmax [1, 3] was 686 ng/mL, the Half-life [1, 3] was 24.7 h and the AUCinf [1, 4] was 5880 ng·h/mL. For the same molecule, the AUClast [1, 4] was 5720 ng·h/mL, the CL/F [1, 4] was 82.0 L/h and the Cmax [1, 4] was 1200 ng/mL. It also gave a Half-life [1, 4] of 34.7 h, a Tmax [1, 4] of 1.52 h and an AUCinf [1, 5] of 3100 ng·h/mL. It also gave an AUClast [1, 5] of 3040 ng·h/mL, a CL/F [1, 5] of 48.4 L/h and a Tmax [1, 5] of 1.50 h. For the same molecule, the AUCinf [1, 6] was 1830 ng·h/mL, the AUClast [1, 6] was 1790 ng·h/mL and the CL/F [1, 6] was 25.5 L/h. The Cmax [1, 6] was 456 ng/mL, the Half-life [1, 6] was 13.3 h and the Tmax [1, 6] was 0.500 h. The CL/F ([1]; Cohort 1: 150 mg, 3 × 50 mg, APERIOD 1, EXDOSE 150, N 10, Geometric Mean) was 49.2 L/h, the AUCinf [1, 7] was 4870 ng·h/mL and the AUClast [1, 7] was 4660 ng·h/mL. For the same molecule, the CL/F [1, 7] was 69.5 L/h, the Cmax [1, 7] was 1120 ng/mL and the Half-life [1, 7] was 32.0 h. The Tmax [1, 7] was 2.00 h, the CL/F ([1]; Cohort 1: 150 mg, 3 × 50 mg, APERIOD 1, EXDOSE 150, N 10, Median) was 57.0 L/h and the AUCinf [1, 8] was 2160 ng·h/mL. It also gave an AUClast [1, 8] of 2080 ng·h/mL, a CL/F [1, 8] of 30.8 L/h and a Cmax [1, 8] of 547 ng/mL. It also gave a Half-life [1, 8] of 18.1 h, an AUCinf [1, 9] of 1780 ng·h/mL and an AUClast [1, 9] of 1720 ng·h/mL. The CL/F [1, 9] was 56.1 L/h, the Cmax [1, 9] was 435 ng/mL and the Half-life [1, 9] was 25.2 h. The Tmax [1, 9] was 1.19 h, the AUCinf [1, 10] was 3940 ng·h/mL and the AUClast [1, 10] was 3710 ng·h/mL. The CL/F [1, 10] was 124 L/h, the Cmax [1, 10] was 654 ng/mL and the Half-life [1, 10] was 34.6 h. It also gave a Tmax [1, 10] of 2.00 h, a CL/F [1, 11] of 58.4 L/h and a Half-life [1, 11] of 24.4 h. It also gave an AUCinf [1, 12] of 805 ng·h/mL, an AUClast [1, 12] of 777 ng·h/mL and a CL/F [1, 12] of 25.4 L/h. For the same molecule, the Cmax [1, 12] was 259 ng/mL, the Half-life [1, 12] was 19.7 h and the Tmax [1, 12] was 0.500 h. For the same molecule, the CL/F ([1]; Cohort 3: 50 mg, APERIOD 1, EXDOSE 50.0, N 8, Geometric Mean) was 87.6 L/h, the AUCinf [1, 13] was 2140 ng·h/mL and the AUClast [1, 13] was 2120 ng·h/mL. For the same molecule, the CL/F [1, 13] was 660 L/h, the Cmax [1, 13] was 507 ng/mL and the Half-life [1, 13] was 32.8 h. For the same molecule, the Tmax [1, 13] was 1.52 h, the CL/F [1, 14] was 74.9 L/h and the Half-life [1, 14] was 23.3 h. It also gave an AUCinf [1, 15] of 75.7 ng·h/mL, an AUClast [1, 15] of 71.6 ng·h/mL and a CL/F [1, 15] of 23.4 L/h. The Cmax [1, 15] was 49.6 ng/mL, the Half-life [1, 15] was 4.24 h and the Tmax [1, 15] was 0.500 h.
In the case of CCC[C@H](N[C@H]1CCc2cc(F)cc(F)c2C1)C(=O)Nc1cn(C(C)(C)CNCC(C)(C)C)cn1 [nirogacestat, (S)-2-(((S)-6,8-difluoro-1,2,3,4-tetrahydronaphthalen-2-yl)amino)-N-(1-(2-methyl-1-(neopentylamino)propan-2-yl)-1H-imidazol-4-yl)pentanamide], the “participants progressing while on therapy” value [2] is listed as “no participants progressing while on therapy”, the response rate [2] is listed as 29% and the “tumor shrinkage as measured by magnetic resonance imaging (MRI)” value [2] is listed as “significant tumor shrinkage”.
